These results are taken from PMC7985170, “Marine Peptide-N6NH2 and Its Derivative-GUON6NH2 Have Potent Antimicrobial Activity Against Intracellular Edwardsiella tarda in vitro and in vivo” (Frontiers in Microbiology, 2021).

For data set [1], the system named is intracellular E. tarda in RAW 264.7 macrophages. The format is cell-based, Edwardsiella tarda. The settings on record: for killing of intracellular bacteria: 5–50× MIC, RAW 264.7; for killing of intracellular bacteria / killing efficacy against intracellular E. tarda: 18 h; for killing efficacy against intracellular E. tarda: 1. As to the method: For intracellular activity, RAW 264.7 macrophages (2.5 × 10^5 cells/mL) were cultured for 24 h in DMEM with 10% FBS (without antibiotics) ([Edwards and Massey, 2011]). Meanwhile, mid-log phase E. tarda were collected by centrifugation, diluted to a concentration of 2.5 × 10^8 CFU/mL in DMEM with 10% FBS (without antibiotic), and incubated with RAW 264.7 macrophages for 0.5 h. Gentamicin (1,000 μg/mL) was then added into the cells and incubated for 30 min to remove extracellular bacteria. After washing twice with PBS, […], washed again, and lysed with Hanks buffered saline solution (0.1% bovine serum albumin and 0.1% Triton-X). The numbers of intracellular bacteria were counted at 0 and 18 h, respectively.

The test system of the next data set is E. coli CVCC25922. Type of data set: cell-based, Escherichia coli. As to the method:
(§1) The antimicrobial activity of peptides was determined by the microbroth dilution method ([Zhang et al., 2014]). The bacterial strains were incubated in Mueller-Hinton (MH) medium at 28°C or 37°C overnight. Bacteria (1 × 10^5 CFU/mL) were added into 96-well plates, followed by the addition of serial dilutions of peptides (from 0.0625 to 128 μg/mL). The plates were incubated at 37°C for 18–24 h. The minimal inhibitory concentration (MIC) value was determined as the lowest peptide concentration at which no bacterial growth was observed.

For the next data set, the system named is E. coli CVCC1515. Type of data set: cell-based, Escherichia coli. On the procedure: as §1
A further data set relates to murine erythrocytes. The format is cell-based, mouse. As to the method:
The hemolysis of peptides was evaluated by determining the amount of hemoglobin that was released from fresh mouse erythrocytes ([Flamm et al., 2019]). The blood cells were washed three times with 10 mM PBS (pH 7.4) and centrifuged for 10 min (1,500 rpm). Erythrocyte solution (8%, v/v) was mixed with peptide solutions (1:1) and incubated for 1 h at 37°C. The mixture was then centrifuged for 5 min (1,500 rpm), and the absorbance of supernatants was measured at 540 nm. Values of 0 and 100% hemolysis were determined in PBS and 0.1% triton X-100, respectively. The hemolysis of peptides was calculated using the following formula: Hemolysis (%) = [(Abs treated sample – Abs negative control)/(Abs positive control – Abs negative control)] × 100.

For data set [2], the system named is E. tarda. As to the kind of experiment: Mouse peritonitis model, survival. Type of data set: in vivo. The settings on record: 1 μmoL/kg i.p. at 1 h postinfection, ICR mice, 5 days. On the procedure:
To establish a peritonitis mouse model, six-week-old female ICR mice (five mice/group) were intraperitoneally injected with E. tarda (1 × 10^9 CFU/mL, 0.5 mL). The infected mice were followed by the intraperitoneal injection of N6NH2, GUON6NH2 or norfloxacin (1 μmol/kg of body weight, 0.2 mL) at 1 h postinfection, respectively. Mice injected with only bacteria or PBS were used as negative or blank controls. The survival of mice was recorded daily for 5 days.

The subject of data set [3] is E. tarda. As to the kind of experiment: Time-killing curve. The format is cell-based, Edwardsiella tarda. The settings on record: 2× or 4× MIC, MHB, 1 × 10^5 CFU/mL, 28°C. As to the method:
Time-killing curve of peptides was performed according to the previous method ([Flamm et al., 2019]). E. tarda was cultured to logarithmic phase, diluted in Mueller Hinton broth (MHB) (1 × 10^5 CFU/mL) containing 1×, 2×, or 4× MIC of peptides, and cultured at 28°C (200 rpm). PBS was added as a control. Bacterial samples (100 μL) were removed at different time intervals (0, 0.5, 1, 1.5, 2, 4, 6, 8, 10, 12, 22, and 24 h) and were counted on MH solid plates. The time-killing curves of peptides were plotted. Bacterial cells treated with 2× MIC norfloxacin and without treatment were used as the positive and blank controls, respectively.

Data set [4] deals with Staphylococcus aureus ATCC43300. The format is cell-based. As to the method: as §1
The next data set concerns Edwardsiella tarda. The format is cell-based. On the procedure: as §1
Data set [5] concerns Salmonella typhimurium CVCC533. Type of data set: cell-based. The settings on record: murium CVCC533. As to the method:
as §1

The test system of the next data set is Escherichia coli CVCC195. Type of data set: cell-based. As to the method: as §1
The test system of data set [6] is Salmonella pullorum CVCC1802. Type of data set: cell-based. As to the method:
as §1

Data set [7] relates to Staphylococcus hyicus 437-2. Type of data set: cell-based. On the procedure:
as §1

Data set [8] concerns E. tarda. As to the kind of experiment: SEM and TEM morphology. Type of data set: cell-based, Edwardsiella tarda. The settings on record: 4× MIC, 2 h. As to the method: To further characterize the bactericidal effects of the peptides, scanning electron microscopy (SEM) and transmission electron microscopy (TEM) were used to visualize morphological changes ([Yang et al., 2019]). E. tarda was cultured to logarithmic growth stage (10^8 CFU/mL) and diluted with 0.01 M PBS (pH 7.4) to OD600 nm = 1. E. tarda cells were treated with 4× MIC peptides at 37°C for 2 h and the untreated cells were used as the control. Briefly, after centrifugation, the bacterial cells were washed three times with 0.1 M PBS (pH 7.2) and fixed overnight at 4°C with 2.5% glutaraldehyde. After washing again, the cells were fixed with 1% osmium tetroxide (OsO4) for 2 h and dehydrated in a graded ethanol series (50%–70%–85%–95% × 2–100%, × 2) for 15 min, respectively. The samples were then dried by CO2, sputtered with gold-palladium, and observed on a QUANTA200 SEM (FEI, Philips, Netherlands).
E. tarda cells were treated peptides before fixation as described above. The bacteria were washed with 0.01 M PBS (pH 7.4) for five times, 7 min each time, and fixed with 1% osmium acid buffer (4°C) for 1 h. After dehydration with a graded acetone series (30%–50%–70%–85%–95%–100% × 3), the cells were immersed in mixtures of acetone and resin (3:1, 1:1 and 1:3, respectively) for 40 min and in a pure epoxy resin overnight. The samples were then embedded in embedding medium and polymerized at 45°C for 3 h and at 65°C for 24 h, respectively. The sections were prepared using an ultramicrotome, stained with 1% uranyl acetate, and visualized by a JEM1400 (JEDL, Tokyo, Japan).

A further data set has as its system S. typhimurium ATCC14028. Type of data set: cell-based, Salmonella typhimurium. As to the method: as §1

≈ marks a conversion by molar mass, not a printed value. Where a SMILES comes first, the peptide text is derived from it. Bridges are numbered along the chain shown (N, C = ends). The star is where a group is joined. Orn(α-tetramethylguanidino) = CN(C)C(=N[C@@H](CCCN)C(=O)*)N(C)C

The MIC is the lowest concentration that inhibits growth of the organism. Lower therefore signals greater potency. In the case of `CC(C)[C@@H]1NC(=O)CNC(=O)[C@H](CC(N)=O)NC(=O)[C@H](CCCNC(=N)N)NC(=O)[C@H](Cc2ccc(O)cc2)NC(=O)[C@H](C(C)C)NC(=O)[C@@H](NC(=O)[C@@H](NC(=O)[C@H](CC(N)=O)NC(=O)[C@H](Cc2c[nH]c3ccccc23)NC(=O)[C@H](C)NC(=O)[C@H](Cc2ccccc2)NC(=O)[C@H](CCCN)N=C(N(C)C)N(C)C)C(C)C)CSSC[C@@H](C(=O)N[C@@H](Cc2c[nH]cn2)C(=O)N[C@@H](CCCNC(=N)N)C(=O)N[C@@H](CCCNC(=N)N)C(=O)N[C@@H](C)C(=O)N[C@@H](CC(N)=O)C(N)=O)NC(=O)[C@H](C(C)C)NC(=O)[C@H](CCCNC(=N)N)NC1=O` [GUON6NH2] ({Orn(α-tetramethylguanidino)}-FAWNVCVYRNGVRVCHRRAN-NH2; disulfide 6-15), the “killing of intracellular bacteria” value in data set [1] is on record as “killed all intracellular bacteria”. Besides, the “killing efficacy against intracellular E. tarda” value in [1] is given as “over 97.07%”. Also, the MIC against E. coli CVCC25922 turned out to be 4 µg/mL (≈ 1.52 µM); in the data set on E. coli CVCC1515, 2 µg/mL (≈ 0.76 µM); in [4] it was 16 µg/mL (≈ 6.08 µM); with Edwardsiella tarda, 8 µg/mL (≈ 3.04 µM); in data set [5], 8 µg/mL (≈ 3.04 µM); with Escherichia coli CVCC195, 4 µg/mL (≈ 1.52 µM). In addition, the figures for the MIC (in [6]; in [7]; with S. typhimurium ATCC14028) were 4 µg/mL (≈ 1.52 µM), 32 µg/mL (≈ 12.2 µM) and 4 µg/mL (≈ 1.52 µM), respectively. For the same molecule, the MHC with murine erythrocytes is greater than 128 µg/mL. Besides, in the data set on murine erythrocytes (red cells of mouse, 1 h), the cytotoxicity and hemolysis is recorded as less than 1%. For the same molecule, the “survival rate of mice” value in the data set with E. tarda [2] was found to be 60%. For the same molecule, in the data set with E. tarda [3], the “time to completely kill E. tarda” value is recorded as no more than 6 h. Further, the “morphological changes by SEM” value with E. tarda [8] is on record as “some protrusions were observed on the cell surfaces”.
For the molecule `CC(C)[C@@H]1NC(=O)CNC(=O)[C@H](CC(N)=O)NC(=O)[C@H](CCCNC(=N)N)NC(=O)[C@H](Cc2ccc(O)cc2)NC(=O)[C@H](C(C)C)NC(=O)[C@@H](NC(=O)[C@@H](NC(=O)[C@H](CC(N)=O)NC(=O)[C@H](Cc2c[nH]c3ccccc23)NC(=O)[C@H](C)NC(=O)[C@H](Cc2ccccc2)NC(=O)CN)C(C)C)CSSC[C@@H](C(=O)N[C@@H](Cc2cnc[nH]2)C(=O)N[C@@H](CCCNC(=N)N)C(=O)N[C@@H](CCCNC(=N)N)C(=O)N[C@@H](C)C(=O)N[C@@H](CC(N)=O)C(N)=O)NC(=O)[C@H](C(C)C)NC(=O)[C@H](CCCNC(=N)N)NC1=O` [N6NH2], in [1], the “killing of intracellular bacteria” value is given as “killed all intracellular bacteria”. Besides, in [1], the “killing efficacy against intracellular E. tarda” value is 96.82%. The “intracellular inhibition rate against E. tarda” value in data set [1] (24 h, 50) is 96.82–100%. Further, the minimum inhibitory concentration (MIC) with E. coli CVCC25922 was 4 µg/mL (≈ 1.62 µM); against E. coli CVCC1515, 2 µg/mL (≈ 0.808 µM); in data set [4], 16 µg/mL (≈ 6.46 µM); against Edwardsiella tarda it was 8 µg/mL (≈ 3.23 µM); in data set [5] it was 4 µg/mL (≈ 1.62 µM); in the data set with Escherichia coli CVCC195, 4 µg/mL (≈ 1.62 µM). In addition, the minimal inhibitory concentration (MIC) in [6] was found to be 4 µg/mL (≈ 1.62 µM); in [7], 32 µg/mL (≈ 12.9 µM); in the data set with S. typhimurium ATCC14028, 4 µg/mL (≈ 1.62 µM). Further, the MHC in the data set on murine erythrocytes is greater than 128 µg/mL. Further, the “survival rate of mice” value in the data set with E. tarda [2] is recorded as 80%. Also, the “time to completely kill E. tarda” value in the data set with E. tarda [3] was no more than 6 h. Also, the “morphological changes by SEM” value with E. tarda [8] is “some protrusions were observed on the cell surfaces”.
